Test results reported in patent US20160193216A1 (Nimbus Iris, Inc., priority 2012, published 2016).
Like-named read-outs stand apart in the source and are kept apart here.

How the values were obtained:
[1] = system: THP-1 cells; experiment: LPS induced cytokine (TNFα and IL8) production assay in THP-1 cells; type: cell-based; conditions: Homo sapiens, 300 ng/mL LPS
Method in brief: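 THP-1 cells (100,000/well) pre-incubated 1 hour with compound in 0.3% DMSO, then stimulated with 300 ng/mL LPS. TNFα and IL8 in supernatant measured by HTRF at 5 hours; IL8 and viability also at 16 hours.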

[2] = system: Whole Blood; experiment: In vitro LPS/R848-induced cytokine production assay in whole blood; type: cell-based, human
Description: (§1) In Vitro LPS/R848/CpG-Induced Cytokine Production Assays in hPBMC or Whole Blood
(§2) Compounds of the present invention were also studied in in vitro LPS/R848/CpG-induced cytokine production assays. Exemplary protocols follow.
(§3) […] Cells were seeded in a 96-well plate with 130 ul/well of the cell suspension according to the plate map. 9 ul of 30 mM compound solution was added into the wells in the assigned rows, then serial solutions with 4× dilutions were made. That is, add 9 uL of 100% DMSO into each of the rest wells and take 3 uL of compound solution from the one-step higher concentration solution and mix well with the DMSO. For the second compound master plate, 196 uL of the growth medium (no serum media) were added into each of the wells and 4 uL of the compound solution from the first compound master plate was added and mixed with the media. Cells were treated for 0.5 h by adding 20 uL of the compound and the control solutions prepared in the second master plate to each well according to the plate map. […] Plates were sealed with sealing films and the plates were centrifuged at 3000 rpm at 4 degrees C. for 5 min. The supernatants were transferred, and 100 ul of working Capture antibody solution was added to each well. The plates were sealed and incubated overnight at RT. IL-6, IFN-α or TNF-α detection antibody labeled with biotin: Added 100 uL of the Detection Antibody solution to each well. Covered the plate and incubated for 2 h at RT. Added 100 uL of Streptavidin-HRP solution to each well. Covered the plate and incubate for 20 min at RT in dark. Added 100 uL of Substrate Solution to each well. Incubated for 20 min at RT in dark. Added 50 uL of Stop Solution to each well. Gently tapped the plate to ensure thorough mixing. Determined the optical density of each well immediately, using a microplate reader set to 450 nm and also read at 540 nm or 570 nm for correction if wavelength correction is not available.

[3] = biological target: T1, IRAK4 (Homo sapiens, UniProt Q9NWZ3); experiment: IRAK-4 activity inhibition assay (Caliper); type: biochemical; conditions: 37 μM ATP, 3.5 nM IRAK4
T1 sequence (Q9NWZ3 1-460): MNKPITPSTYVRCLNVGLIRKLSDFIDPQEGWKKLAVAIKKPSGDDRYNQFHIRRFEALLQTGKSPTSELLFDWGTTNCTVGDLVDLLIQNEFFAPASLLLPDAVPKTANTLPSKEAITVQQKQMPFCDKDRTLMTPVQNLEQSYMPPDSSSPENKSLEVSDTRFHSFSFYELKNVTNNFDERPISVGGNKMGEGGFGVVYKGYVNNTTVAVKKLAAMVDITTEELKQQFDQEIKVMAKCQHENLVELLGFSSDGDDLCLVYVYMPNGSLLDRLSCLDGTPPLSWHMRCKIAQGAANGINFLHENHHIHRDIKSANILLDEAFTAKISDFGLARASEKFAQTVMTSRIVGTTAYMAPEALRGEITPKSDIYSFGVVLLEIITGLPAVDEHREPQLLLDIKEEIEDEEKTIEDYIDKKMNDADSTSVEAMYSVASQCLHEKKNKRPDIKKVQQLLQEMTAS

[4] = system: hPBMC; experiment: In vitro LPS/R848/CpG/IL-1β-induced cytokine production assay in hPBMC; type: cell-based; conditions: Homo sapiens
Description: as §1, §2, §3

[5] = system: ABC DLBCL Cells; experiment: sensitization of ABC DLBCL cells to IRAK inhibitors by BTK knockdown; type: cell-based; conditions: BTK knockdown (FIG. 9)
Text: FIG. 8 depicts the sensitization of ABC DLBCL Cells to IRAK Inhibitors by BTK knockdown.

[6] = system: GCB DLBCL Cells; experiment: sensitization of GCB DLBCL cells by BTK knockdown; type: cell-based; conditions: BTK knockdown (FIG. 10)
[7] = system: collagen-induced arthritis; experiment: In vivo murine collagen-induced arthritis model; conditions: DBA mice, intraperitoneally 30 mg/kg twice a day, vs vehicle
Description: In Vivo Murine Collagen-Induced Arthritis Model Compounds of the present invention were also evaluated in mice in an in vivo efficacy model for inhibiting IRAK4-mediated arthritis. An exemplary protocol for this assay follows. Male DBA mice were immunized with collagen on day 0 and day 21 and randomly enrolled into groups upon onset of disease. […] Eight mice were enrolled per group with the exception of the naïve control group, which contained four mice. Day 1 was designated as the first treatment day, and mice were evaluated daily for clinical scores until day 11. The mice were weighed on alternating days.

[8] = system: OCI-Ly10 cells; experiment: In vivo murine xenograft tumor model of human ABC DLBCL lymphoma; conditions: NOD/SCID mice
Description: In Vivo Murine Tumor Model of Human ABC DLBCL Lymphoma
Compounds of the present invention were also evaluated in a xenograft tumor model of human ABC DLBCL lymphoma first described and disclosed in Staudt et al. (2012). The tumor was established by subcutaneous injection of OCI-Ly10 cells into immunodeficient (NOD/SCID) mice. […] Tumor growth was monitored by measuring tumor size in two orthogonal directions. The tumor volume was calculated by using the formula (1/2)(long dimension)×(short dimension)^2.

[9] = system: ABC DLBCL cell lines; experiment: Cell viability assay, combination with ibrutinib; type: cell-based
Description: Compounds of the present invention were also evaluated in a cell viability assay.

[10] = Homo sapiens, LPS 0.1 ug/mL, read-out: TNF-α production IC50
[11] = Homo sapiens, R848 1 uM, read-out: IFN-α production IC50
[12] = Homo sapiens, LPS 0.1 ug/mL, read-out: IL-6 production IC50
[13] = LPS 0.01 ug/mL, read-out: IL-6 production IC50
[14] = LPS 0.01 ug/mL, read-out: TNF-α production IC50
[15] = R848 1 uM, read-out: TNF-α production IC50

Row | IC50 ([1]; read-out: IL8 production IC50) [µM] | IC50 ([1]; read-out: TNFα production IC50) [µM] | IC50 [2, 10] [µM] | IC50 [2, 11] [µM] | IC50 [3] [µM] | IC50 [2, 15] [µM] | Compound | further results
1 | ≤ 0.5 | ≤ 0.5 | ≥ 1 | ≥ 1 |  |  | Cn1cc(Nc2nc(O[C@H]3CC[C@H](N(C)C)CC3)c3c4c(sc3n2)CCC4CC(N)=O)cn1 (stereo in doubt) [Compound I-224, 2-[(3S)-12-[[4-(dimethylamino)cyclohexyl]oxy]-10-[(1-methyl-1H-pyrazol-4-yl)amino]-7-thia-9,11-diazatricyclo[6.4.0.0[2,6]]dodeca-1(8),2(6),9,11-tetraen-3-yl]acetamide] | 
2 | 1 to 5 | 1 to 5 | ≥ 1 |  | < 5 |  | CN(CC(=O)N1CCCC1)[C@H]1CC[C@H](Oc2ncnc3sc4c(c23)[C@@H](CC(N)=O)CC4)CC1 [Compound I-73, 2-[(3R)-12-[(4-[methyl[2-oxo-2-(pyrrolidin-1-yl)ethyl]amino]cyclohexyl)oxy]-7-thia-9,11-diazatricyclo[6.4.0.0[2,6]]dodeca-1(8),2(6),9,11-tetraen-3-yl]acetamide] | 
3 | 0.5 to 1 | 1 to 5 | ≥ 1 |  | < 5 |  | CN[C@H]1CC[C@H](Oc2ncnc3sc4c(c23)[C@@H](CC(N)=O)CC4)CC1 [Compound I-79, 2-[(3R)-12-[[4-(methylamino)cyclohexyl]oxy]-7-thia-9,11-diazatricyclo[6.4.0.0̂[2,6]]dodeca-1(8),2(6),9,11-tetraen-3-yl]acetamide] | IC50 [2, 12]: ≥ 1 µM; IC50 [4, 13]: ≥ 1 µM; IC50 [4, 14]: ≥ 1 µM
4 | 0.5 to 1 | 0.5 to 1 | ≥ 1 |  | < 5 |  | CCN[C@H]1CC[C@H](Oc2ncnc3sc4c(c23)[C@@H](CC(N)=O)CC4)CC1 [Compound I-85, 2-((R)-4-(((1r,4R)-4-(ethylamino)cyclohexyl)oxy)-6,7-dihydro-5H-cyclopenta[4,5]thieno[2,3-d]pyrimidin-5-yl)acetamide] | 
5 | ≤ 0.5 | 0.5 to 1 | ≥ 1 |  | < 5 |  | NC(=O)C[C@H]1CCc2sc3ncnc(O[C@H]4CC[C@H](N5CCCC5)CC4)c3c21 [Compound I-105, 2-[(3R)-12-[[4-(pyrrolidin-1-yl)cyclohexyl]oxy]-7-thia-9, 11-diazatricyclo[6.4.0.0[2,6]]dodeca-1(8),2(6),9, 11-tetraen-3-yl]acetamide] | 
6 | ≤ 0.5 | ≤ 0.5 | ≥ 1 | ≥ 1 | < 5 | ≥ 1 | NC(=O)[C@H]1CCc2sc3ncnc(O[C@H]4CC[C@H](N5CCOCC5)CC4)c3c2C1 [Compound I-220, (12S)-3-[[4-(morpholin-4-yl)cyclohexyl]oxy]-8-thia-4,6-diazatricyclo[7.4.0.0[2,7]]trideca-1(9),2(7),3,5-tetraene-12-carboxamide] | 
7 | ≥ 5 | ≥ 5 |  |  | < 5 |  | CN(C)[C@H]1CC[C@H](Nc2ncnc3sc4c(c23)C[C@@H](C(N)=O)CC4)CC1 [Compound I-230, (12S)-3-[[4-(dimethylamino)cyclohexyl]amino]-8-thia-4,6-diazatricyclo[7.4.0.0[2,7]]trideca-1(9),2(7),3,5-tetraene-12-carboxamide] | 
8 | ≤ 0.5 | ≤ 0.5 | ≥ 1 | ≥ 1 | < 5 | ≥ 1 | CN(C)[C@H]1CC[C@H](Oc2ncnc3sc4c(c23)C[C@@H](C(N)=O)CC4)CC1 [Compound I-233, (12S)-3-[[4-(dimethylamino)cyclohexyl]oxy]-8-thia-4,6-diazatricyclo[7.4.0.0[2,7]]trideca-1(9),2(7),3,5-tetraene-12-carboxamide] | 
9 | ≤ 0.5 | ≤ 0.5 | ≥ 1 | ≥ 1 |  |  | Cn1cc(Nc2nc(O[C@H]3CC[C@H](N4CCOCC4)CC3)c3c4c(sc3n2)CC[C@@H]4CC(N)=O)cn1 [Compound I-235] | 

Row | Compound | IC50 ([1]; read-out: IL8 production IC50) [µM] | IC50 ([1]; read-out: TNFα production IC50) [µM] | IC50 [2, 10] [µM] | IC50 [2, 11] [µM] | IC50 [3] [µM] | IC50 [2, 15] [µM] | further results
10 | NC(=O)[C@@H](O)C[C@H]1CCc2sc3ncnc(O[C@H]4CC[C@H](N5CCOCC5)CC4)c3c21 [Compound I-92, (S)-2-hydroxy-3-((R)-4-(((1r,4R)-4-morpholinocyclohexyl)oxy)-6,7-dihydro-5H-cyclopenta[4,5]thieno[2,3-d]pyrimidin-5-yl)propanamide] | ≤ 0.5 | ≤ 0.5 | 0.5 to 1 | 0.5 to 1 |  | 0.5 to 1 | sensitization of ABC DLBCL Cells to compound by BTK knockdown [5]: sensitization; sensitization of GCB DLBCL Cells to compound by BTK Knockdown [6]: lack of sensitization; IC50 [2, 12]: ≤ 0.25 µM; IC50 ([4]; CpG 0.1 uM, read-out: IFN-α production IC50): 0.25 to 0.5 µM; IC50 ([4]; CpG 0.5 uM, read-out: TNF-α production IC50): ≤ 0.25 µM; IC50 ([4]; IL-1β 1 ng/mL, read-out: IL-6 production IC50): ≤ 0.25 µM; IC50 [4, 13]: ≤ 0.25 µM; IC50 [4, 14]: ≤ 0.25 µM; IC50 [4, 15]: ≤ 0.25 µM; Clinical scores, collagen-induced arthritis [7]: efficacious compared to the vehicle; ABC lymphoma growth (tumor volume) [8]: reduces ABC lymphoma growth; Tolerability in the animals [8]: well tolerated; Killing of ABC DLBCL cells in combination with ibrutinib [9]: Synergistic killing
